According to PubChem BioAssay AID330 (DTP/NCI, 2004):
“And” between values parts separate entries of the source, which are not always exact repeats. Identical values can stand only once. Inconclusive results and toxic doses are left out. Rule for the calls: active = survival T/C of 150% or more; inactive = T/C below 125% in these data.

Test system: P388 leukemia ip, CD2F1 mice, survival T/C
Assay: NCI In Vivo Anticancer Drug Screen. Data for tumor model P388 Leukemia (intraperitoneal) in CD2F1 (CDF1) mice
Conditions: endpoint: median survival time, higher = longer survival
Summary of the method: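 Mice carrying the transplanted tumor received test compound or vehicle. Survival was recorded in each group, and the value is the treated-group measurement divided by that of the vehicle-treated control group.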

[1] = dose: 60.0 mg/kg/injection, schedule: Q01DX005 (ip), vehicle: saline with Tween-80
[2] = dose: 120.0 mg/kg/injection, schedule: Q01DX005 (ip), vehicle: saline with Tween-80
[3] = dose: 240.0 mg/kg/injection, schedule: Q01DX005 (ip), vehicle: saline with Tween-80
[4] = dose: 25.0 mg/kg/injection, schedule: Q01DX009 (ip), vehicle: saline with Tween-80
[5] = dose: 50.0 mg/kg/injection, schedule: Q01DX009 (ip), vehicle: saline with Tween-80
[6] = dose: 100.0 mg/kg/injection, schedule: Q01DX009 (ip), vehicle: saline with Tween-80
[7] = dose: 50.0 mg/kg/injection, schedule: Q01DX009 (ip), vehicle: saline
[8] = dose: 200.0 mg/kg/injection, schedule: Q01DX009 (ip), vehicle: saline
[9] = dose: 200.0 mg/kg/injection, schedule: Q01DX009 (ip), vehicle: saline with Tween-80

Measured: T/C

COCC(O)CN1CCN(c2ccccc2C)CC1 (stereo unspecified)
inactive: dose: 25.0 mg/kg/injection, schedule: Q04DX003 (ip), vehicle: saline with Tween-80 100 % of control | dose: 50.0 mg/kg/injection, schedule: Q04DX003 (ip), vehicle: saline with Tween-80 100 % of control | dose: 100.0 mg/kg/injection, schedule: Q04DX003 (ip), vehicle: saline with Tween-80 90 % of control

COC(=O)C(C)NC(=O)C(C)NC(=O)c1cnc2ccccc2n1 (stereo unspecified)
inactive: [1] 97 % of control | [2] 99 % of control | [3] 111 % of control

CCC(SC)C(=O)c1ccccc1 (stereo unspecified)
inactive: [4] 114 % of control | [5] 100 % of control | [6] 101 % of control

CC(O)C(O)C(O)C(C=O)OC1OC(C)C(O)C(O)C1O (stereo unspecified)
inactive: dose: 2.5 mg/kg/injection, schedule: Q01DX005 (ip), vehicle: saline + alcohol 99 % of control | dose: 5.0 mg/kg/injection, schedule: Q01DX005 (ip), vehicle: saline + alcohol 96 % of control | dose: 10.0 mg/kg/injection, schedule: Q01DX005 (ip), vehicle: saline + alcohol 110 % of control | dose: 20.0 mg/kg/injection, schedule: Q01DX005 (ip), vehicle: saline + alcohol 91 % of control

Cc1c(=O)n(C)c2ccccc2[n+]1[O-]
inactive: [1] 96 % of control | [2] 93 % of control | [3] 100 % of control

O=c1c2cc(F)ccc2nnn1-c1ccccc1
inactive: dose: 12.5 mg/kg/injection, schedule: Q01DX009 (ip), vehicle: suspension in saline 88 % of control | dose: 25.0 mg/kg/injection, schedule: Q01DX009 (ip), vehicle: suspension in saline 98 % of control | [7] 86 % of control | dose: 50.0 mg/kg/injection, schedule: Q01DX009 (ip), vehicle: suspension in saline 107 % of control | [8] 90 % of control

NC(=O)c1ccccn1
inactive: dose: 25.0 mg/kg/injection, schedule: Q01DX009 (ip), vehicle: saline 108 % of control | [7] 110 % of control | dose: 100.0 mg/kg/injection, schedule: Q01DX009 (ip), vehicle: saline 99 % of control | [8] 99 % of control

Cc1ccc(S(=O)(=O)OCCC(C)OS(=O)(=O)c2ccc(C)cc2)cc1 (stereo unspecified)
inactive: [1] 100 % of control | [2] 100 % of control | [3] 101 % of control

N#CC1(N)CC2CCCCC2CC1c1ccccc1 (stereo unspecified)
inactive: dose: 100.0 mg/kg/injection, schedule: Q04DX002 (ip), vehicle: saline with Tween-80 106 % of control | dose: 200.0 mg/kg/injection, schedule: Q04DX002 (ip), vehicle: saline with Tween-80 101 % of control | dose: 400.0 mg/kg/injection, schedule: Q04DX002 (ip), vehicle: saline with Tween-80 101 % of control

COc1ccc(/C(O)=C/c2nc3cccc([N+](=O)[O-])c3[nH]c2=O)cc1
inactive: dose: 15.0 mg/kg/injection, schedule: Q01DX005 (ip), vehicle: saline with Tween-80 91 % of control | dose: 30.0 mg/kg/injection, schedule: Q01DX005 (ip), vehicle: saline with Tween-80 91 % of control | [1] 86 % of control

CCOC(=O)N1CCN(CCCCCCOc2ccc(C3CCCCC3)cc2)CC1
inactive: [5] 106 % of control | [6] 118 % of control | [9] 123 % of control

O=C1C(Br)=C(O)C(c2ccccc2)N1c1ccccc1 (stereo unspecified)
inactive: [1] 110 % of control | [2] 94 % of control | [3] 113 % of control

CC1(C)OC2COC3(C(=O)O)OC(C)(C)OC3C2O1 (stereo unspecified)
inactive: dose: 50.0 mg/kg/injection, schedule: Q01DX005 (ip), vehicle: Klucel (hydroxypropylcellulose) (HPC) 100 % of control | dose: 100.0 mg/kg/injection, schedule: Q01DX005 (ip), vehicle: Klucel (hydroxypropylcellulose) (HPC) 100 % of control | dose: 200.0 mg/kg/injection, schedule: Q01DX005 (ip), vehicle: Klucel (hydroxypropylcellulose) (HPC) 98 % of control

COc1cc(C=C2C(=O)C=CC2=O)cc(OC)c1O
inactive: dose: 1.25 mg/kg/injection, schedule: Q04DX002 (ip), vehicle: saline with Tween-80 102 % of control | dose: 2.5 mg/kg/injection, schedule: Q04DX002 (ip), vehicle: saline with Tween-80 103 % of control | dose: 5.0 mg/kg/injection, schedule: Q04DX002 (ip), vehicle: saline with Tween-80 102 % of control

CC(C)(C)N=C(CCN1CCN(CCC(=NC(C)(C)C)Nc2ccc(Cl)cc2)CC1)Nc1ccc(Cl)cc1
inactive: dose: 50.0 mg/kg/injection, schedule: Q01DX009 (ip), vehicle: Klucel (hydroxypropylcellulose) (HPC) 87 % of control | dose: 100.0 mg/kg/injection, schedule: Q01DX009 (ip), vehicle: Klucel (hydroxypropylcellulose) (HPC) 93 % of control | dose: 200.0 mg/kg/injection, schedule: Q01DX009 (ip), vehicle: Klucel (hydroxypropylcellulose) (HPC) 96 % of control

CC(O)CNc1n[nH]c(=O)c2ccccc12 (stereo unspecified)
inactive: [5] 101 % of control | [6] 104 % of control | [9] 94 % of control

N#CC1OC1c1ccc[n+]([O-])c1 (stereo unspecified)
inactive: dose: 1.56 mg/kg/injection, schedule: Q01DX005 (ip), vehicle: saline 94 % of control | dose: 3.12 mg/kg/injection, schedule: Q01DX005 (ip), vehicle: saline 105 % of control | dose: 6.25 mg/kg/injection, schedule: Q01DX005 (ip), vehicle: saline 100 % of control | dose: 12.5 mg/kg/injection, schedule: Q01DX005 (ip), vehicle: saline 101 % of control

CC(=O)OC1C2(CC3N4C(=O)C5(CO)SSC4(CC31O)C(=O)N5C)OC(C)C(C)(C)C2=O (stereo unspecified)
inactive: dose: 0.08 mg/kg/injection, schedule: Q01DX009 (ip), vehicle: saline 101 % of control | dose: 0.15 mg/kg/injection, schedule: Q01DX009 (ip), vehicle: saline 108 % of control | dose: 0.3 mg/kg/injection, schedule: Q01DX009 (ip), vehicle: saline 111 % of control | dose: 0.31 mg/kg/injection, schedule: Q01DX009 (ip), vehicle: saline 107 % of control | dose: 0.6 mg/kg/injection, schedule: Q01DX009 (ip), vehicle: saline 111 % of control | dose: 0.63 mg/kg/injection, schedule: Q01DX009 (ip), vehicle: saline with Tween-80 97 % of control | dose: 0.63 mg/kg/injection, schedule: Q01DX009 (ip), vehicle: saline 107 % of control | dose: 0.78 mg/kg/injection, schedule: Q01DX009 (oral), vehicle: saline 104 % of control | dose: 1.2 mg/kg/injection, schedule: Q01DX009 (ip), vehicle: saline 99 % of control | dose: 1.25 mg/kg/injection, schedule: Q01DX009 (ip), vehicle: saline 103 % of control and 111 % of control | dose: 1.56 mg/kg/injection, schedule: Q01DX009 (oral), vehicle: saline 105 % of control | dose: 3.12 mg/kg/injection, schedule: Q01DX009 (oral), vehicle: saline 100 % of control and 101 % of control | dose: 6.25 mg/kg/injection, schedule: Q01DX009 (oral), vehicle: saline 95 % of control | dose: 12.5 mg/kg/injection, schedule: Q01DX009 (oral), vehicle: saline 89 % of control

COc1cccc2c1C(=N)c1c(O)c3c(c(O)c1C2=O)CC(O)(C(=O)CO)CC3OC1CC(N2CCOCC2)C(O)C(C)O1 (stereo unspecified)
inactive: dose: 0.13 mg/kg/injection, schedule: Q04DX003 (ip), vehicle: water 101 % of control and 104 % of control and 98 % of control | dose: 0.25 mg/kg/injection, schedule: Q04DX003 (ip), vehicle: water 101 % of control and 108 % of control and 116 % of control | dose: 0.5 mg/kg/injection, schedule: Q04DX003 (ip), vehicle: water 104 % of control and 107 % of control | dose: 0.78 mg/kg/injection, schedule: Q04DX003 (ip), vehicle: distilled water + Tween-80 105 % of control | dose: 1.0 mg/kg/injection, schedule: Q04DX003 (ip), vehicle: water 99 % of control and 104 % of control and 107 % of control | dose: 1.56 mg/kg/injection, schedule: Q04DX003 (ip), vehicle: distilled water + Tween-80 101 % of control | dose: 3.12 mg/kg/injection, schedule: Q04DX003 (ip), vehicle: distilled water + Tween-80 99 % of control

NC(=S)N/N=C/c1[nH]c2cc(Br)c(Br)cc2c1Br
inactive: dose: 100.0 mg/kg/injection, schedule: Q01DX001 (ip), vehicle: saline with Tween-80 91 % of control | dose: 200.0 mg/kg/injection, schedule: Q01DX001 (ip), vehicle: saline with Tween-80 91 % of control | dose: 400.0 mg/kg/injection, schedule: Q01DX001 (ip), vehicle: saline with Tween-80 98 % of control

CN(C)C(=S)SCNC(=S)NCSC(=S)N(C)C
inactive: dose: 6.25 mg/kg/injection, schedule: Q01DX009 (ip), vehicle: saline with Tween-80 104 % of control | dose: 12.5 mg/kg/injection, schedule: Q01DX009 (ip), vehicle: saline with Tween-80 110 % of control and 117 % of control | [4] 116 % of control and 121 % of control

Nc1nc2c(c(-c3nc(N)nc4c3CCc3ccccc3-4)n1)CCc1ccccc1-2
inactive: dose: 60.0 mg/kg/injection, schedule: Q01DX005 (ip), vehicle: saline 105 % of control | dose: 120.0 mg/kg/injection, schedule: Q01DX005 (ip), vehicle: saline 99 % of control | dose: 240.0 mg/kg/injection, schedule: Q01DX005 (ip), vehicle: saline 107 % of control
